From patent US12378224B2 (Dong-A Socio Holdings Co., Ltd., priority 2016, dated 2025)
pIC50: −log10 of the molar value.

Target: human MER (528-end) (Homo sapiens (Human), UniProt Q12866)
Experiment: HTRF Kinase Activity Biochemical Assay (KinEASE-TK)
Conditions: 10 uM ATP
How it was run: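 Recombinant human MER (528-end) phosphorylated biotin-TK peptide substrate, 1 h at room temperature. Reaction stopped with detection buffer containing 0.375 nM Eu3+-cryptate anti-TK antibody and 0.062 uM streptavidin-XL665, 1 h further. Activity taken as HTRF ratio 665/620 nm ×10,000, 340 nm excitation.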

Sequence of human MER (528-end) (Q12866 528-999 limits assumed): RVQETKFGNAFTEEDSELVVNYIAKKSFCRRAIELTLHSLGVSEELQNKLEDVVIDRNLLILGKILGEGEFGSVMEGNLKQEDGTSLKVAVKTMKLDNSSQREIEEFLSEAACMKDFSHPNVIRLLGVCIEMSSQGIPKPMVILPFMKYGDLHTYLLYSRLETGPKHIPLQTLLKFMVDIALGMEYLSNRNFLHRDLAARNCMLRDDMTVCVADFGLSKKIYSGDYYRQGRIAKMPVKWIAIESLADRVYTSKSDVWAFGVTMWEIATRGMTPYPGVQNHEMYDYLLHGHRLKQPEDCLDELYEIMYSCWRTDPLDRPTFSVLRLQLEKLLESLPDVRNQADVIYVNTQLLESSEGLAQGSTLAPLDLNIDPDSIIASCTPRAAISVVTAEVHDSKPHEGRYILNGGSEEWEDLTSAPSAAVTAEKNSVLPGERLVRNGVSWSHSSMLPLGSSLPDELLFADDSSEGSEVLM

Row | SMILES | pIC50
1 | Cn1cc(-c2cnc(N)c(C(=O)N[C@@H]3CCN(C(=O)/C=C/c4ccc(CN5CCN(CCO)CC5)cc4)C3)c2)cn1 [Example 430, (R,E)-2-amino-N-(1-(3-(4-((4-(2-hydroxyethyl)piperazin-1-yl)methyl)phenyl)acryloyl)pyrrolidin-3-yl)-5-(1-methyl-1H-pyrazol-4-yl)nicotinamide] | < 6.00
2 | CN1CCN(Cc2ccc(-c3ccc(/C=C/C(=O)N4CC[C@@H](NC(=O)c5cc(-c6cnn(C)c6)cnc5N)C4)cc3)cc2)CC1 [Example 432, (R,E)-2-amino-5-(1-methyl-1H-pyrazol-4-yl)-N-(1-(3-(4′-((4-methylpiperazin-1-yl)methyl)-[1,1′-biphenyl]-4-yl)acryloyl)pyrrolidin-3-yl)nicotinamide] | < 6.00
3 | COc1ccccc1CC(=O)N1CC[C@@H](NC(=O)c2cc(-c3cnn(C)c3)cnc2N)C1 [Example 436, (R)-2-amino-N-(1-(2-(2-methoxyphenyl)acetyl)pyrrolidin-3-yl)-5-(1-methyl-1H-pyrazol-4-yl)nicotinamide] | < 6.00
4 | Cn1cc(-c2cnc(N)c(C(=O)N[C@@H]3CCN(C(=O)c4ccccc4)C3)c2)cn1 [Example 438, (R)-2-amino-N-(1-benzoylpyrrolidin-3-yl)-5-(1-methyl-1H-pyrazol-4-yl)nicotinamide] | < 6.00
5 | CN1CCN(Cc2ccc(-c3cccc4c(C(=O)N5CC[C@@H](NC(=O)c6cc(-c7cnn(C)c7)cnc6N)C5)cccc34)cc2)CC1 [Example 443, (R)-2-amino-5-(1-methyl-1H-pyrazol-4-yl)-N-(1-(5-(4-((4-methylpiperazin-1-yl)methyl)phenyl)-1-naphthoyl)pyrrolidin-3-yl)nicotinamide] | < 6.00
6 | Cn1cc(-c2cnc(N)c(C(=O)N[C@@H]3CCN(C(=O)c4cccc5c(-c6ccc(CN7CCC[C@@H]7CO)cc6)cccc45)C3)c2)cn1 [Example 444] | < 6.00
7 | CC(NCc1ccc(-c2cccc3c(C(=O)N4CC[C@@H](NC(=O)c5cc(-c6cnn(C)c6)cnc5N)C4)cccc23)cc1)C1CCN(C)CC1 (stereo partly drawn) [Example 445] | < 6.00
8 | CN1CCN(Cc2ccc(Oc3cccc(C(=O)N4CC[C@@H](NC(=O)c5cc(-c6cnn(C)c6)cnc5N)C4)c3)cc2)CC1 [Example 446, (R)-2-amino-5-(1-methyl-1H-pyrazol-4-yl)-N-(1-(3-(4-((4-methylpiperazin-1-yl)methyl)phenoxy)benzoyl)pyrrolidin-3-yl)nicotinamide] | < 6.00
9 | Cn1cc(-c2cnc(N)c(C(=O)N[C@@H]3CCN(C(=O)c4cccc(Oc5ccc(CN6CCC[C@@H]6CO)cc5)c4)C3)c2)cn1 [Example 447, 2-amino-N—((R)-1-(3-(4-(((R)-2-(hydroxymethyl)pyrrolidin-1-yl)methyl)phenoxy)benzoyl)pyrrolidin-3-yl)-5-(1-methyl-1H-pyrazol-4-yl)nicotinamide] | < 6.00
10 | CN1CCN(Cc2ccc(Oc3ccc(C(=O)N4CC[C@@H](NC(=O)c5cc(-c6cnn(C)c6)cnc5N)C4)cc3)cc2)CC1 [Example 448, (R)-2-amino-5-(1-methyl-1H-pyrazol-4-yl)-N-(1-(4-(4-((4-methylpiperazin-1-yl)methyl)phenoxy)benzoyl)pyrrolidin-3-yl)nicotinamide] | < 6.00
11 | Cn1cc(-c2cnc(N)c(C(=O)N[C@@H]3CCN(C(=O)c4ccc(Oc5ccc(CN6CCC[C@@H]6CO)cc5)cc4)C3)c2)cn1 [Example 449] | < 6.00
12 | Cn1cc(-c2cnc(N)c(C(=O)N[C@@H]3CCN(C(=O)c4cccc(-c5ccccc5)c4)C3)c2)cn1 [Example 450, (R)—N-(1-([1,1′-biphenyl]-3-carbonyl)pyrrolidin-3-yl)-2-amino-5-(1-methyl-1H-pyrazol-4-yl)nicotinamide] | < 6.00
13 | Cn1cc(-c2cnc(N)c(C(=O)N[C@@H]3CCN(C(=O)c4cccc(-c5cnn(C6CCNCC6)c5)c4)C3)c2)cn1 [Example 451, (R)-2-amino-5-(1-methyl-1H-pyrazol-4-yl)-N-(1-(3-(1-(piperidin-4-yl)-1H-pyrazol-4-yl)benzoyl)pyrrolidin-3-yl)nicotinamide] | < 6.00
14 | CN1CCN(C(=O)Cc2cccc(-c3cccc(C(=O)N4CC[C@@H](NC(=O)c5cc(-c6cnn(C)c6)cnc5N)C4)c3)c2)CC1 [Example 452, (R)-2-amino-5-(1-methyl-1H-pyrazol-4-yl)-N-(1-(3′-(2-(4-methylpiperazin-1-yl)-2-oxoethyl)-[1,1′-biphenyl]-3-carbonyl)pyrrolidin-3-yl)nicotinamide] | < 6.00
15 | CN1CCN(C(=O)Cc2ccc(-c3cccc(C(=O)N4CC[C@@H](NC(=O)c5cc(-c6cnn(C)c6)cnc5N)C4)c3)cc2)CC1 [Example 454, (R)-2-amino-5-(1-methyl-1H-pyrazol-4-yl)-N-(1-(4′-(2-(4-methylpiperazin-1-yl)-2-oxoethyl)-[1,1′-biphenyl]-3-carbonyl)pyrrolidin-3-yl)nicotinamide] | < 6.00
16 | CN1CCN(CCc2ccc(-c3cccc(C(=O)N4CC[C@@H](NC(=O)c5cc(-c6cnn(C)c6)cnc5N)C4)c3)cc2)CC1 [Example 455, (R)-2-amino-5-(1-methyl-1H-pyrazol-4-yl)-N-(1-(4′-(2-(4-methylpiperazin-1-yl)ethyl)-[1,1′-biphenyl]-3-carbonyl)pyrrolidin-3-yl)nicotinamide] | < 6.00
17 | Cn1cc(-c2cnc(N)c(C(=O)N[C@@H]3CCN(C(=O)c4cccc(-c5cccc(C(=O)O)c5)c4)C3)c2)cn1 [Example 456, (R)-3′-(3-(2-amino-5-(1-methyl-1H-pyrazol-4-yl)nicotinamido)pyrrolidine-1-carbonyl)-[1,1′-biphenyl]-3-carboxylic acid] | < 6.00
18 | Cn1cc(-c2cnc(N)c(C(=O)N[C@@H]3CCN(C(=O)c4nc(-c5ccccc5)oc4C(F)(F)F)C3)c2)cn1 [Example 458, (R)-2-amino-5-(1-methyl-1H-pyrazol-4-yl)-N-(1-(2-phenyl-5-(trifluoromethyl)oxazole-4-carbonyl)pyrrolidin-3-yl)nicotinamide] | < 6.00
19 | Cn1cc(-c2cnc(N)c(C(=O)N[C@@H]3CCN(C(=O)c4cccc(-c5cccc(Cn6cccn6)c5)c4)C3)c2)cn1 [Example 459, (R)—N-(1-(3′-((1H-pyrazol-1-yl)methyl)-[1,1′-biphenyl]-3-carbonyl)pyrrolidin-3-yl)-2-amino-5-(1-methyl-1H-pyrazol-4-yl)nicotinamide] | < 6.00
20 | Cn1cc(-c2cnc(N)c(C(=O)N[C@@H]3CCN(C(=O)c4cccc(-c5cccc(Cn6ccnc6)c5)c4)C3)c2)cn1 [Example 460, (R)—N-(1-(3′-((1H-imidazol-1-yl)methyl)-[1,1′-biphenyl]-3-carbonyl)pyrrolidin-3-yl)-2-amino-5-(1-methyl-1H-pyrazol-4-yl)nicotinamide] | < 6.00
21 | Cn1cc(-c2cnc(N)c(C(=O)N[C@@H]3CCN(C(=O)c4cccc(-c5cccc(CN6CCOCC6)c5)c4)C3)c2)cn1 [Example 461, (R)-2-amino-5-(1-methyl-1H-pyrazol-4-yl)-N-(1-(3′-(morpholinomethyl)-[1,1′-biphenyl]-3-carbonyl)pyrrolidin-3-yl)nicotinamide] | < 6.00
22 | Cn1cc(-c2cnc(N)c(C(=O)N[C@@H]3CCN(C(=O)c4cccc(-c5cccc(C(=O)N6CCSCC6)c5)c4)C3)c2)cn1 [Example 463, (R)-2-amino-5-(1-methyl-1H-pyrazol-4-yl)-N-(1-(3′-(thiomorpholine-4-carbonyl)-[1,1′-biphenyl]-3-carbonyl)pyrrolidin-3-yl)nicotinamide] | < 6.00
23 | Cn1cc(-c2cnc(N)c(C(=O)N[C@@H]3CCN(C(=O)c4cccc(-c5cccc(C(=O)N6CCNCC6)c5)c4)C3)c2)cn1 [Example 464, (R)-2-amino-5-(1-methyl-1H-pyrazol-4-yl)-N-(1-(3′-(piperazine-1-carbonyl)-[1,1′-biphenyl]-3-carbonyl)pyrrolidin-3-yl)nicotinamide] | < 6.00
24 | Cn1cc(-c2cnc(N)c(C(=O)N[C@@H]3CCN(C(=O)c4cccc(-c5ccc(C(=O)N6CCNCC6)cc5)c4)C3)c2)cn1 [Example 465, (R)-2-amino-5-(1-methyl-1H-pyrazol-4-yl)-N-(1-(4′-(piperazine-1-carbonyl)-[1,1′-biphenyl]-3-carbonyl)pyrrolidin-3-yl)nicotinamide] | < 6.00
25 | Cn1cc(-c2cnc(N)c(C(=O)N[C@@H]3CCN(C(=O)c4ccc(-c5cccc(C(=O)N6CCNCC6)c5)cc4)C3)c2)cn1 [Example 466, (R)-2-amino-5-(1-methyl-1H-pyrazol-4-yl)-N-(1-(3′-(piperazine-1-carbonyl)-[1,1′-biphenyl]-4-carbonyl)pyrrolidin-3-yl)nicotinamide] | 6.00 to 7.00
26 | Cn1cc(-c2cnc(N)c(C(=O)N[C@@H]3CCN(C(=O)c4ccc(-c5ccc(C(=O)N6CCNCC6)cc5)cc4)C3)c2)cn1 [Example 467, (R)-2-amino-5-(1-methyl-1H-pyrazol-4-yl)-N-(1-(4′-(piperazine-1-carbonyl)-[1,1′-biphenyl]-4-carbonyl)pyrrolidin-3-yl)nicotinamide] | < 6.00
27 | Cc1nn(C)cc1-c1cccc(C(=O)N2CC[C@@H](NC(=O)c3cc(-c4cnn(C)c4)cnc3N)C2)c1 [Example 469, (R)-2-amino-N-(1-(3-(1,3-dimethyl-1H-pyrazol-4-yl)benzoyl)pyrrolidin-3-yl)-5-(1-methyl-1H-pyrazol-4-yl)nicotinamide] | < 6.00
28 | Cn1cc(-c2cnc(N)c(C(=O)N[C@@H]3CCN(C(=O)c4cccc(-c5cnn(C6CCCC6)c5)c4)C3)c2)cn1 [Example 470, (R)-2-amino-N-(1-(3-(1-cyclopentyl-1H-pyrazol-4-yl)benzoyl)pyrrolidin-3-yl)-5-(1-methyl-1H-pyrazol-4-yl)nicotinamide] | < 6.00
29 | Cn1cc(-c2cnc(N)c(C(=O)N[C@@H]3CCN(C(=O)c4cccc(-c5cccnc5)c4)C3)c2)cn1 [Example 472, (R)-2-amino-5-(1-methyl-1H-pyrazol-4-yl)-N-(1-(3-(pyridin-3-yl)benzoyl)pyrrolidin-3-yl)nicotinamide] | < 6.00
30 | Cn1cc(-c2cnc(N)c(C(=O)N[C@@H]3CCN(C(=O)c4cccc(-c5ccncc5)c4)C3)c2)cn1 [Example 473, (R)-2-amino-5-(1-methyl-1H-pyrazol-4-yl)-N-(1-(3-(pyridin-4-yl)benzoyl)pyrrolidin-3-yl)nicotinamide] | < 6.00
